# According to patent US20240285642A1, “EGFR INHIBITOR FOR THE TREATMENT OF HEAD AND NECK CANCER” (NATCO PHARMA LIMITED, priority 2021, published 2024):
# Read-outs that look alike come from different tables or passages of the source.
# Experiments:
# [1] = system: head and neck cancer cell line; settings: Parkinson et al 2007; cited from earlier work
# [2] = system: recurrent and/or metastatic squamous cell carcinoma of the head and neck (R/M HNSCC); experiment: Phase II randomized study: efficacy (PFS, ORR, RECIST 1.1); type: in vivo, human
# Text: Primary objective: The primary objective was to evaluate the efficacy of NRC-2694-A in combination with platinum plus paclitaxel regimen compared to platinum plus paclitaxel regimen alone in terms of progression free survival (PFS) in patients with recurrent and/or metastatic squamous cell carcinoma of the head and neck (R/M HNSCC).
# Secondary objectives: The secondary objective was (a) to compare the objective response rate in patients with R/M HNSCC treated with NRC-2694-A in combination with platinum plus paclitaxel regimen compared to platinum plus paclitaxel regimen alone and (b) to compare the safety and tolerability of the two regimens.
# The study was an open-label, prospective, randomized, active controlled, multicentric phase-II study of NRC-2694-A in patients with histologically/cytologically confirmed HNSCC with radiological progression (recurrence and/or metastasis).
# Patients between 18 and 65 years of age with life expectancy≥3 months having recurrent and/or metastatic disease for whom cisplatin/carboplatin plus paclitaxel regimen was planned were eligible for the study. Those who fit all the inclusion and exclusion criteria were randomized to receive either chemotherapy+NRC-2694-A (study drug arm) or chemotherapy alone (control arm). • Arm-I (study drug arm): NRC-2694-A+cisplatin/carboplatin and paclitaxel • Arm-II (control arm): cisplatin/carboplatin and paclitaxel
# During the study, 300 mg NRC-2694-A was administered once daily in the morning with or without food with 240 ml of water. The dose of cisplatin was 100 mg/m^2 of body surface area as intravenous infusion over an hour. Alternatively, the dose of carboplatin was based on the target area under the curve (AUC) equivalent to 5 mg/mL/min, as an infusion over 1 hour. The choice of platinum compound was per the investigator's discretion and was dependent on the type of platinum received during prior therapy, avoiding repetition. Paclitaxel was given at a dose of 175 mg/m^2 of body surface area as an infusion over 3 hours. • Monotherapy: After completion of 6 cycles of chemotherapy in control arm or in study drug arm, patients received 300 mg of NRC-2694-A once daily as a monotherapy.
# [3] = system: recurrent squamous cell carcinoma of the head and neck; experiment: Phase I clinical study: tumour evaluation per RECIST 1.1; type: in vivo, human
# Procedure: A Phase I clinical study was conducted to evaluate the safety, pharmacokinetics and anti-tumour activity of NRC-2694-A (NRC-2694 dihydrochloride) in patients with recurrent squamous cell carcinoma of the head and neck.
# An open label, prospective, non-randomized, multicentre, dose escalation study was performed. The starting dose selected for this study was 100 mg/day and the maximum dose received was 500 mg/day. Eligible subjects were housed in a unit of the hospital for 12 days, beyond which patients who tolerated the drug were treated on out-patient (ambulatory) basis.
# Tumour Evaluation: Change in the size of evaluable tumour from base line was evaluated as per RECIST criteria (version 1.1).
# [4] = Phase I clinical study: safety, MTD and DLT; type: in vivo
# Procedure: An open label, prospective, non-randomized, multicentre, dose escalation study was performed. The starting dose selected for this study was 100 mg/day and the maximum dose received was 500 mg/day.
# Safety: Assessments were performed within 7 days before administration of study medication and subsequently on Days 12, 18, 24, 30, 45, 60, 75 and 90. However, for assessing the DLT and MTD first 30 day safety data was considered.
# [5] = Phase I clinical study: plasma pharmacokinetics (LC-MS/MS); type: in vivo, human; settings: 100 mg/day to 500 mg/day
# Procedure: Secondary: To evaluate the single and multiple dose pharmacokinetics and anti-tumour activity of NRC-2694-A. An open label, prospective, non-randomized, multicentre, dose escalation study was performed. The starting dose selected for this study was 100 mg/day and the maximum dose received was 500 mg/day. Eligible subjects were housed in a unit of the hospital for 12 days, beyond which patients who tolerated the drug were treated on out-patient (ambulatory) basis. Pharmacokinetic Evaluation: Estimation of NRC-2694 in plasma was done using a validated LC-MS/MS method. Based on the plasma concentration data, non-compartmental pharmacokinetic variables viz. area under the curve (AUC), peak plasma concentration (Cmax), time to peak plasma concentration (Tmax), and elimination rate constant, volume of distribution, half-life and clearance were calculated for single dose (on Day 1) as well as at steady state (on Day 12). Blood samples at pre-dose, 0.5, 1, 1.5, 2, 2.5, 3, 4, 6, 8, 12 and 24 hrs were collected in K2 EDTA prefilled vacutainers.
# R/M HNSCC = settings: cited from earlier work
# [6] = Stage-II monotherapy, among the 4 patients with partial response in Stage-I
compound,measurement,setting,value
"C#Cc1cccc(Nc2ncnc3cc(OC)c(OCCCN4CCOCC4)cc23)c1 [NRC-2694, (3-Ethynyl-phenyl)-[7-methoxy-6-(3-morpholin-4-yl-propoxy)-quinazolin-4-yl]-amine]",inhibition of growth of a head and neck cancer cell line grafted into athymic female mice,[1],low to moderate inhibition
"C#Cc1cccc(Nc2ncnc3cc(OC)c(OCCCN4CCOCC4)cc23)c1.Cl.Cl [NRC-2694-A, N-(3-ethynylphenyl)-7-methoxy-6-(3-morpholinopropoxy) quinazolin-4-amine dihydrochloride]",patients in whom complete response was maintained,"[2]; Stage-II monotherapy 300 mg once daily, Arm-I patients with complete response in Stage-I",2 patients
same,patients continuing to have partial response,[2]; [6],one
same,patients with progressive disease,[2]; [6],1 patients
same,patients with stable disease,[2]; [6],2 patients
same,patients continuing to have progressive disease,"[2]; Stage-II monotherapy, patient with progressive disease in Stage-I",1 patients
same,patients achieving complete response,"[2]; Stage-II monotherapy, patients from Arm-II with partial response and stable disease earlier",2 patients
same,patients continuing to have stable disease,"[2]; Stage-II monotherapy, patients with stable disease in Stage-I",Two
same,Outcome (tumour evaluation),"[3]; Subject No. 0202, Head and Neck, 120 days completed",Stable Disease
same,Outcome (tumour evaluation),"[3]; Subject No. 0207, Head and Neck, 79 days completed",Stable Disease
same,Outcome (tumour evaluation),"[3]; Subject No. 0211, Head and Neck, 120 days completed",Stable Disease
same,Outcome (tumour evaluation),"[3]; Subject No. 0212, Head and Neck, 120 days completed",Partial Response
same,Outcome (tumour evaluation),"[3]; Subject No. 0216, Head and Neck, 120 days completed",Stable Disease
same,anti-tumour activity (effect on tumour size),"[3]; patients with recurrent squamous cell carcinoma of the head and neck, oral once daily",tumour size reduction or tumour size stasis
same,safety profile,"[4]; once daily administration, Phase I",tolerable safety profile
same,MTD (maximum tolerated dose),"[4]; oral once daily, dose escalation 100 to 500 mg/day, first 30 day safety data",400 mg/day
same,plasma concentration versus dose,[5]; Day-1 and Day-12 concentrations,dose dependent increase
same,relationship of pharmacokinetics to dose,[5]; patients,Dose proportional relationship
"Pembrolizumab: approved monoclonal antibody, immunotherapy for R/M HNSCC",ORR,"R/M HNSCC; Pembrolizumab alone, CPS>20 population",26%
same,ORR,R/M HNSCC; combination of Pembrolizumab and platinum-based chemotherapy,36%
